From ChEMBL document CHEMBL4619750, “Benzoxepinones: A new isoform-selective class of tumor associated carbonic anhydrase inhibitors” (Bioorg Med Chem, 2020)

What was measured:
Carbonic anhydrase 1 = Carbonic anhydrase 1 (Homo sapiens, UniProt P00915); test: Inhibition of human carbonic anhydrase 1 assessed as inhibitory constant incubated for 6 hrs by stopped-flow CO2 hydration assay
Carbonic anhydrase 2 = Carbonic anhydrase 2 (Homo sapiens, UniProt P00918); test: Inhibition of human carbonic anhydrase 2 assessed as inhibitory constant incubated for 6 hrs by stopped-flow CO2 hydration assay
Carbonic anhydrase 9 = Carbonic anhydrase 9 (Homo sapiens, UniProt Q16790); test: Inhibition of human carbonic anhydrase 9 assessed as inhibitory constant incubated for 6 hrs by stopped-flow CO2 hydration assay

Chain of Carbonic anhydrase 1 (P00915 whole entry): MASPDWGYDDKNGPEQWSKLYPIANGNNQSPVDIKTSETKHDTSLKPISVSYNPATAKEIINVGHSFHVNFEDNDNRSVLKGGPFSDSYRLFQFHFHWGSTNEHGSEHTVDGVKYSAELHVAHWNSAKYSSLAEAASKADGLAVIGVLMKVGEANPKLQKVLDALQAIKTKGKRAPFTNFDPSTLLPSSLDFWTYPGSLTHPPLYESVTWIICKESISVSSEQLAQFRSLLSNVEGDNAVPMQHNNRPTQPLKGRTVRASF

SMILES	Ki (Carbonic anhydrase 1) [µM]	Ki (Carbonic anhydrase 2) [µM]	Ki (Carbonic anhydrase 9) [µM]
COC(=O)C1=Cc2cc(OC)ccc2OC(=O)C1	> 100	66.8	0.0402
COC(=O)C1=Cc2cc(C)ccc2OC(=O)C1	> 100	> 100	0.0717
CCN(CC)c1ccc2c(c1)OC(=O)CC(C(=O)OC)=C2	> 100	> 100	0.0934
COC(=O)C1=Cc2cc(C(=O)OC)ccc2OC(=O)C1	> 100	> 100	0.0393
COC(=O)C1=Cc2cc(Cl)ccc2OC(=O)C1	> 100	76.2	0.02
COC(=O)C1=Cc2ccc(C)cc2OC(=O)C1	> 100	> 100	0.171
COC(=O)C1=Cc2cc(C(C)(C)C)ccc2OC(=O)C1	> 100	85.7	0.0373
COC(=O)C1=Cc2cccc(OC)c2OC(=O)C1	> 100	> 100	0.0463
COC(=O)C1=Cc2ccc3ccccc3c2OC(=O)C1	> 100	> 100	0.303
COC(=O)C1=Cc2ccc(Cl)cc2OC(=O)C1	> 100	> 100	0.078
COC(=O)C1=Cc2ccc(OC)cc2OC(=O)C1	> 100	> 100	0.0838
COC(=O)C1=Cc2ccccc2OC(=O)C1	> 100	> 100	0.254
